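These data come from cells grown in 96-well plates and exposed to compound for 48 hours at five concentrations. TGI is the concentration that stops growth completely.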
How the values were obtained:
Test in all cases: NCI anticancer screen, dose series, 48 h
786-0 renal = tested on: 786-0 renal
A549 NSCLC = tested on: A549 NSCLC
ACHN renal = tested on: ACHN renal
CCRF-CEM leukemia = tested on: CCRF-CEM leukemia
COLO 205 colon = tested on: COLO 205 colon
DLD-1 colon = tested on: DLD-1 colon
DMS 114 small cell lung = tested on: DMS 114 small cell lung
DMS 273 small cell lung = tested on: DMS 273 small cell lung
EKVX NSCLC = tested on: EKVX NSCLC
HCC-2998 colon = tested on: HCC-2998 colon
HCT-116 colon = tested on: HCT-116 colon
HCT-15 colon = tested on: HCT-15 colon
HL-60(TB) leukemia = tested on: HL-60(TB) leukemia
HOP-18 NSCLC = tested on: HOP-18 NSCLC
HOP-92 NSCLC = tested on: HOP-92 NSCLC
HT29 colon = tested on: HT29 colon
IGROV1 ovarian = tested on: IGROV1 ovarian
K-562 leukemia = tested on: K-562 leukemia
KM12 colon = tested on: KM12 colon
KM20L2 colon = tested on: KM20L2 colon
LOX IMVI melanoma = tested on: LOX IMVI melanoma
LXFL 529 NSCLC = tested on: LXFL 529 NSCLC
M14 melanoma = tested on: M14 melanoma
M19-MEL melanoma = tested on: M19-MEL melanoma
MALME-3M melanoma = tested on: MALME-3M melanoma
MOLT-4 leukemia = tested on: MOLT-4 leukemia
NCI-H226 lung = tested on: NCI-H226 lung
NCI-H23 lung = tested on: NCI-H23 lung
NCI-H460 lung = tested on: NCI-H460 lung
NCI-H522 lung = tested on: NCI-H522 lung
OVCAR-3 ovarian = tested on: OVCAR-3 ovarian
OVCAR-4 ovarian = tested on: OVCAR-4 ovarian
OVCAR-5 ovarian = tested on: OVCAR-5 ovarian
OVCAR-8 ovarian = tested on: OVCAR-8 ovarian
RPMI-8226 leukemia = tested on: RPMI-8226 leukemia
RXF 393 renal = tested on: RXF 393 renal
SF-268 CNS = tested on: SF-268 CNS
SF-295 CNS = tested on: SF-295 CNS
SF-539 CNS = tested on: SF-539 CNS
SK-MEL-2 melanoma = tested on: SK-MEL-2 melanoma
SK-MEL-28 melanoma = tested on: SK-MEL-28 melanoma
SK-MEL-5 melanoma = tested on: SK-MEL-5 melanoma
SK-OV-3 ovarian = tested on: SK-OV-3 ovarian
SN12C renal = tested on: SN12C renal
SNB-19 CNS = tested on: SNB-19 CNS
SNB-75 CNS = tested on: SNB-75 CNS
SNB-78 CNS = tested on: SNB-78 CNS
SR leukemia = tested on: SR leukemia
SW-620 colon = tested on: SW-620 colon
TK-10 renal = tested on: TK-10 renal
U251 CNS = tested on: U251 CNS
UACC-257 melanoma = tested on: UACC-257 melanoma
UACC-62 melanoma = tested on: UACC-62 melanoma
UO-31 renal = tested on: UO-31 renal
XF 498 CNS = tested on: XF 498 CNS
A498 renal = tested on: A498 renal
CAKI-1 renal = tested on: CAKI-1 renal
HOP-62 NSCLC = tested on: HOP-62 NSCLC
RXF-631 renal = tested on: RXF-631 renal

Measured: TGI

COc1ccc(CC#C/C=C/C(=O)NCC(C)C)cc1
not listed: A498 renal | CAKI-1 renal | HOP-62 NSCLC | RXF-631 renal
> 100 µM: all other assays above

COc1ccc2c(CCNC(C)=O)c(C(C)=O)[nH]c2c1
not listed: HOP-18 NSCLC | HOP-92 NSCLC | M19-MEL melanoma | MALME-3M melanoma | NCI-H23 lung | SK-MEL-5 melanoma | SK-OV-3 ovarian | XF 498 CNS
> 100 µM: all other assays above
